Experimental data: patent US6949513B2, “Polypeptides of covalently linked synthetic bioactive peptide analog(s) for treatment of cancer” (Dabur Research Foundation, priority 2001, dated 2005)
Positions of bridges follow the written chain, without caps; N, C: chain ends. Non-standard residues stand in square brackets, D forms with d. Residues, ends and D or L forms follow the SMILES beside them. Pen = CC(C)(S)[C@H](N)C(=O)O; Orn = NCCC[C@H](N)C(=O)O; Ac5c = NC1(C(=O)O)CCCC1; Aib = CC(C)(N)C(=O)O

Columns and labels:
[1] = test system: PTC (colon) tumor xenografts; test: antitumor activity on PTC (colon) tumor xenografts grown in nude mice; format: in vivo, Balb/c athymic mice; conditions: 50 μg twice a day (total 100 μg), 14 days, compared to untreated mice
Method: PTC (colon) tumor xenografts were initiated in Balb/c athymic mice by subcutaneous inoculation of a single cell suspension of PTC cells(15×10^6 cells/[…]). When the average tumor volume reached around 2000 mm^3 the tumor-bearing mice were divided into three groups of 3 animals each. Two groups were randomly assigned for SEQ ID NO: 5 and SEQ ID NO: 7 treatment while the third group served as control. SEQ ID NO: 5 and SEQ ID NO:7 were prepared at a concentration of 250 μg/ml so as to deliver a dose of 50 μg per 200 μl. The injections were given twice a day at 12 hour intervals so as to deliver a total dose of 100 μg. The treatment was continued daily for a period of 14 days. The anti-tumor activity of SEQ ID NO: 5 and SEQ ID NO: 7 was monitored by measuring tumor volumes every fourth day and calculating volumes using the formula 0.4×W^2×L (W=smaller dia, L=larger dia,).

PTC (Colon) = test: three day MTT cytotoxicity assay, PTC; format: cell-based, human; conditions: 72 hours
Method: (§1) SEQ ID NO: 5 and SEQ ID NO: 7 were tested for cytotoxicity against 6 human tumor cell lines. Briefly, a three day MTT cytotoxicity assay was performed, which is based on the principle of uptake of MTT (3-(4,5-dimethylthiazol-2-yl)-2,5-diphenyl tetrazolium bromide), a tetrazolium salt, by the metabolically active cells where it is metabolized by active mitochondria into a blue colored formazan product that is read spectrophoto-metrically. MTT was dissolved in phosphate buffered saline with a pH of 7.4 to obtain an MTT concentration of 5 mg/ml; the resulting mixture was filtered through a 0.22 micron filter to sterilize and remove a small amount of insoluble residue. For each type of tumor cell, 20,000 to 50,000 cells were seeded in a 96-well culture plate and incubated with the drug in a CO2 incubator for 72 hours. The final concentration range of SEQ ID NO: 5 and SEQ ID NO: 7 was 1 nM to 10 μM. The drug was added at time 0, 24 and 48 hours. Control cells not treated with the drug were similarly incubated. The assay was terminated after 72 hours by adding 100 ug (20 ul) of MTT to each well, then incubating for additional one hour, and finally adding 50 ul of 10% SDS-0.01N HCl to each well to lyse the cells and dissolve formazan. After incubating for one hour, the plate was read spectrophotometrically at 540 nm and the cytotoxicity percentage calculated. The following Tables 1 and 2 show the dose response of SEQ ID NO: 5 and SEQ ID NO: 7 respectively along with their respective ED50 values on different tumor cell lines.

MCF-7 (Breast) = test: three day MTT cytotoxicity assay, MCF-7; format: cell-based, human; conditions: 72 hours
Method: as §1

KB (Oral) = test: three day MTT cytotoxicity assay, KB; format: cell-based, human; conditions: 72 hours
Method: as §1

L132 (Lung) = test: three day MTT cytotoxicity assay, L132; format: cell-based, human; conditions: 72 hours
Method: as §1

MiaPaCa.2 (Pancreas) = test: three day MTT cytotoxicity assay, MiaPaCa.2; format: cell-based, human; conditions: 72 hours
Method: as §1

MOLT-4 (Leukemia) = test: three day MTT cytotoxicity assay, MOLT-4; format: cell-based, human; conditions: 72 hours
Method: as §1

trypsin = trypsin digestion of the polypeptide; format: in vitro ADME; conditions: trypsin 1:25 w/w, 37° C., pH 8.0-8.5
Method: On controlled digestion of the polypeptide peptide (SEQ ID NO:5), with enzyme trypsin, for ˜15 minutes, 3 major peaks were identifiable on analytical HPLC.
Briefly, the peptide was weighed, dissolved in NH4HCO3 buffer (pH 8.0) and mixed with freshly made enzyme trypsin (1 mg/ml in water) in a ratio of 1:25 (w/w) of enzyme: substrate, according to published protocol (Ref.: Methods in Mol. Bio., Vol. 32, Basic protein and peptide protocols, Enzymatic methods for cleaving proteins). The digestion mixture was incubated at 37° C. Aliquots were taken at different time points and analyzed on analytical HPLC (Shimadzu, Japan). The 15′ enzyme digest sample was picked up for analysis by MALDI-MS.

Row | SMILES | Tumor regression [1] | Percent cytotoxicity (PTC (Colon); 1 nM) | Percent cytotoxicity (PTC (Colon); 10 nM) | Percent cytotoxicity (PTC (Colon); 100 nM) | Percent cytotoxicity (PTC (Colon); 1 μM) | Percent cytotoxicity (PTC (Colon); 10 μM) | Percent cytotoxicity (MCF-7 (Breast); 1 nM) | Percent cytotoxicity (MCF-7 (Breast); 10 nM) | Percent cytotoxicity (MCF-7 (Breast); 100 nM) | Percent cytotoxicity (MCF-7 (Breast); 1 μM) | Percent cytotoxicity (MCF-7 (Breast); 10 μM) | Percent cytotoxicity (KB (Oral); 1 nM) | Percent cytotoxicity (KB (Oral); 10 nM) | Percent cytotoxicity (KB (Oral); 100 nM) | Percent cytotoxicity (KB (Oral); 1 μM) | Percent cytotoxicity (KB (Oral); 10 μM) | Percent cytotoxicity (L132 (Lung); 1 nM) | Percent cytotoxicity (L132 (Lung); 10 nM) | Percent cytotoxicity (L132 (Lung); 100 nM) | Percent cytotoxicity (L132 (Lung); 1 μM) | also measured
1 | CSCC[C@H](NC(=O)[C@H](CC(C)C)NC(=O)[C@H](CCCCN)NC(=O)[C@H](CCCCN)NC(=O)[C@H](CC(C)C)NC(=O)[C@H](Cc1c[nH]cn1)NC(=O)C(C)(C)NC(=O)[C@@H](NC(=O)[C@H](C)NC(=O)[C@H](Cc1c[nH]c2ccccc12)NC(=O)[C@H](CCC(N)=O)NC(=O)[C@@H](Cc1ccccc1)NC(=O)[C@H](CCCCN)NC(=O)[C@H](CCCCN)NC(=O)C1(NC(=O)[C@H](CC(C)C)NC(=O)[C@@H](Cc2c[nH]c3ccccc23)NC(=O)[C@H](Cc2ccccc2)NC(=O)[C@@H](Cc2c[nH]c3ccccc23)NC(=O)[C@H](CCC(N)=O)NC(=O)[C@@H](Cc2ccccc2)NC(=O)[C@@H]2CCCN2C(=O)[C@H](CCCCN)NC(=O)[C@@H]2CCCN2C(=O)[C@H](N)CCCNC(=N)N)CCCC1)C(C)C)C(=O)N[C@@H](Cc1ccc(O)cc1)C(=O)N1CCC[C@H]1C(=O)N[C@H](C(=O)N[C@@H](Cc1ccc(O)cc1)C(=O)N[C@@H](CC(C)C)C(=O)N[C@@H](CCCCN)C(=O)N[C@@H](CCCCN)C(=O)N[C@H](Cc1ccccc1)C(=O)N[C@H]1CSSC(C)(C)[C@@H](C(=O)N[C@H](C(N)=O)[C@@H](C)O)NC(=O)C2(CCCC2)NC(=O)[C@H](CCCN)NC(=O)[C@@H](Cc2c[nH]c3ccccc23)NC(=O)[C@H](Cc2ccc(O)cc2)NC1=O)[C@@H](C)O [SEQ ID NO: 7, P3-Lys-Lys-P2-Lys-Lys-P1-Lys-P4] (H-[dR]PKP[dF]Q[dW]F[dW]L[Ac5c]KK[dF]QWAV[Aib]HLKKLMYPTYLKK[dF]CY[dW][Orn][Ac5c][Pen]T-NH2; disulfide 34-39) | 48.7% | 13.5 ± 1.8 | 18.7 ± 0.5 | 23.5 ± 3.5 | 28.5 ± 2.1 | 17.9 ± 1.9 | 18.9 ± 2.0 | 19.0 ± 0.5 | 22.9 ± 1.4 | 23.6 ± 2.9 | 31.4 ± 3.7 | 13.9 ± 1.9 | 23.9 ± 1.8 | 34.8 ± 3.9 | 54.3 ± 5.8 | 82.8 ± 5.4 | 9.0 ± 0.6 | 10.4 ± 0.4 | 13.3 ± 0.1 | 14.9 ± 0.6 | Percent cytotoxicity (L132 (Lung); 10 μM): 23.1 ± 0.9; Percent cytotoxicity (MiaPaCa.2 (Pancreas); 1 nM): 24.9 ± 2.8; Percent cytotoxicity (MiaPaCa.2 (Pancreas); 10 nM): 22.9 ± 1.4; Percent cytotoxicity (MiaPaCa.2 (Pancreas); 100 nM): 23.8 ± 2.9; Percent cytotoxicity (MiaPaCa.2 (Pancreas); 1 μM): 28.8 ± 1.9; Percent cytotoxicity (MiaPaCa.2 (Pancreas); 10 μM): 27.8 ± 2.8; Percent cytotoxicity (MOLT-4 (Leukemia); 1 nM): 23.7 ± 1.6; Percent cytotoxicity (MOLT-4 (Leukemia); 10 nM): 34.9 ± 4.9; Percent cytotoxicity (MOLT-4 (Leukemia); 100 nM): 46.0 ± 4.9; Percent cytotoxicity (MOLT-4 (Leukemia); 1 μM): 54.3 ± 4.9; Percent cytotoxicity (MOLT-4 (Leukemia); 10 μM): 88.5 ± 6.8
2 | CSCC[C@H](NC(=O)[C@H](CC(C)C)NC(=O)[C@H](CCCCN)NC(=O)[C@H](CCCCN)NC(=O)C1(NC(=O)[C@H](CC(C)C)NC(=O)[C@@H](Cc2c[nH]c3ccccc23)NC(=O)[C@H](Cc2ccccc2)NC(=O)[C@@H](Cc2c[nH]c3ccccc23)NC(=O)[C@H](CCC(N)=O)NC(=O)[C@@H](Cc2ccccc2)NC(=O)[C@@H]2CCCN2C(=O)[C@H](CCCCN)NC(=O)[C@@H]2CCCN2C(=O)[C@@H](CCCNC(=N)N)NC(=O)[C@H](CCCCN)NC(=O)[C@H](CCCCN)NC(=O)[C@@H](NC(=O)[C@H]2NC(=O)C3(CCCC3)NC(=O)[C@H](CCCN)NC(=O)[C@@H](Cc3c[nH]c4ccccc34)NC(=O)[C@H](Cc3ccc(O)cc3)NC(=O)[C@@H](NC(=O)[C@H](N)Cc3ccccc3)CSSC2(C)C)[C@@H](C)O)CCCC1)C(=O)N[C@@H](Cc1ccc(O)cc1)C(=O)N1CCC[C@H]1C(=O)N[C@H](C(=O)N[C@@H](Cc1ccc(O)cc1)C(=O)N[C@@H](CC(C)C)C(=O)N[C@@H](CCCCN)C(=O)N[C@@H](CCCCN)C(=O)N[C@H](Cc1ccccc1)C(=O)N[C@@H](CCC(N)=O)C(=O)N[C@@H](Cc1c[nH]c2ccccc12)C(=O)N[C@@H](C)C(=O)N[C@H](C(=O)NC(C)(C)C(=O)N[C@@H](Cc1c[nH]cn1)C(=O)N[C@@H](CC(C)C)C(N)=O)C(C)C)[C@@H](C)O [SEQ ID NO: 5, P4-Lys-Lys-P3-Lys-Lys-P1-Lys-P2] (H-[dF]CY[dW][Orn][Ac5c][Pen]TKK[dR]PKP[dF]Q[dW]F[dW]L[Ac5c]KKLMYPTYLKK[dF]QWAV[Aib]HL-NH2; disulfide 2-7) | 73.7% | 16.5 ± 1.6 | 14.2 ± 2.2 | 16.8 ± 1.0 | 21.7 ± 2.9 | 27.9 ± 2.8 | 29.7 ± 3.8 | 28.2 ± 4.3 | 35.3 ± 4.8 | 59.4 ± 4.8 | 85.4 ± 5.0 | 10.6 ± 1.2 | 18.2 ± 1.9 | 30.7 ± 3.9 | 43.1 ± 5.3 | 98.3 ± 5.7 | 20.5 ± 3.2 | 21.5 ± 3.9 | 22.2 ± 2.8 | 28.2 ± 3.1 | time in which the polypeptide disappeared completely on incubation with trypsin (trypsin): ~5 h; Percent cytotoxicity (L132 (Lung); 10 μM): 48.8 ± 3.6; Percent cytotoxicity (MiaPaCa.2 (Pancreas); 1 nM): 24.2 ± 2.7; Percent cytotoxicity (MiaPaCa.2 (Pancreas); 10 nM): 37.8 ± 4.6; Percent cytotoxicity (MiaPaCa.2 (Pancreas); 100 nM): 48.2 ± 4.8; Percent cytotoxicity (MiaPaCa.2 (Pancreas); 1 μM): 59.6 ± 4.9; Percent cytotoxicity (MiaPaCa.2 (Pancreas); 10 μM): 84.5 ± 6.3; Percent cytotoxicity (MOLT-4 (Leukemia); 1 nM): 10.4 ± 0.7; Percent cytotoxicity (MOLT-4 (Leukemia); 10 nM): 18.7 ± 1.9; Percent cytotoxicity (MOLT-4 (Leukemia); 100 nM): 34.7 ± 4.7; Percent cytotoxicity (MOLT-4 (Leukemia); 1 μM): 54.3 ± 5.2; Percent cytotoxicity (MOLT-4 (Leukemia); 10 μM): 94.5 ± 6.1
